Assay results taken from patent publication US7928189B2, “PCSK9 polypeptide fragment” (Ottawa Health Research Institute, priority 2008, dated 2011).
Where no end group is shown, it is not given here. [ ]: non-standard residue; d: D form. pS = N[C@@H](COP(=O)(O)O)C(=O)O

Tests used:
Format in all cases: cell-based, human
[1] = test system: LDLR levels in Huh7 cells; assay: Peptides added to cultured cells, LDLR immunoblot of total cell lysates; conditions: 24 hours, media minus FBS
Procedure: Cells were seeded onto 6 well plates and grown to ˜80% confluency. All cell lines were grown in DMEM (Dulbecco's Modified Eagle's Medium)+10% (v/v) FBS (fetal bovine serum)+280 μg/ml GTM (gentamycin). In this case, cells were incubated overnight in the same media in the absence of FBS for 12 hours. Peptides are then added to media minus FBS, and at indicated concentrations and this media+peptide is added onto cells cultured for additional 24 hours. Following this incubation we collected the spent media and total cell lysates (TCL) in the presence of protease inhibitor cocktail. 50 μg of proteins from TCL were then fractionated by SDS-PAGE, transferred to nitrocellulose and immunoblotted following standard protocols with a commercial anti LDLR antibody. The protein signals for LDLR were quantified by densitometry using Syngene Chemigenius 2XE imager and Gene Tools software. All values are made relative to values from untreated control cells set as 1 and presented as mean±SEM ([…]).

[2] = test system: LDLR levels in Huh7 cells; assay: Overexpression of PCSK9 phosphorylation mutants, LDLR immunoblot; conditions: 72 hours post-transfection, in comparison to wildtype PCSK9
Procedure: Huh7 cells were untransfected (C-control) or transiently transfected with cDNAs encoding either wild-type (WT) PCSK9, or the naturally-occurring propeptide mutants shown to decrease PCSK9 phosphorylation; A53V PCSK9 and R46L PCSK9 or the engineered propeptide mutants that prevent phosphorylation; S47A PCSK9, E49A PCAK9 and E49D PCSK9 or the engineered C-terminal mutants that prevent phosphorylation; S688A and E690A. 72 hours post-transfection spent media and total cell lysates were collected as described herein. 50 μg of total cell lysates were fractionated through a 7% NuPAGE Tris-Acetate Gel (Invitrogen) and immunoblotted for LDLR as described below. The protein signals were quantified by densitometry using Syngene Chemigenius 2XE imager and Gene Tools software. All values were made relative to values from control cells set as 1 and presented as mean±SEM (n=3). Data were analyzed using GraphPad Prism 5.0 statistical software with significance defined as p<0.05.

[3] = test system: PCSK9 phosphorylation in Huh7 cells; assay: Kinase inhibitor incubation, radiolabelling and immunoprecipitation of secreted PCSK9; conditions: 32P-orthophosphate, 16 hrs, SSP at 200 nm, GK at 25 μg/ml
Procedure: Untransfected and transfected HepG2 and Huh7 cells were grown to confluence as above. Prior to radiolabeling cells were incubated for 4 hours in serum-free DMEM without sodium phosphate (Invitrogen) or methionine/cysteine (Met/Cys) free DMEM (Invitrogen) and then incubated for 16 hrs in the same media in the presence of either 250 μCi 32P-orthophosphate or 250 μCi 35S-Met/Cys. Media and TCLs were harvested and immunoprecipitated as described above. Samples were fractionated through a 12% SDSPAGE. Following electrophoresis gels were dried and visualized by phosphoimaging using a Typhoon Imager. Signals were quantified using ImageQuant 5.2 software using the integer integration method when comparing samples within a lane and, for samples between lanes, by volume quantitation as recommended. The level of LDLR was quantified in Huh7 cells by immunoblotting of total cell lysates (50 μg) in response to overnight incubation without (control) or with two different kinase inhibitors, staurosporine (SSP at 200 nm) or GK (genistein at 25 μg/ml) (FIG. 11A). […] Protein concentrations in total cell lysates were determined by the Bradford dye-binding method using Bio-Rad's Protein Assay Kit (Bio-Rad; Mississauga, ON, CAN). LDLR levels were analyzed by immunoblotting following a standard protocol. […]

[4] = test system: LDLR levels in Huh7 cells; assay: Kinase inhibitor incubation, LDLR immunoblot of total cell lysates; conditions: 16 hrs, SSP at 200 nm, GK at 25 μg/ml, relative to untreated cells
Procedure: The level of LDLR was quantified in Huh7 cells by immunoblotting of total cell lysates (50 μg) in response to overnight incubation without (control) or with two different kinase inhibitors, staurosporine (SSP at 200 nm) or GK (genistein at 25 μg/ml) (FIG. 11A). Huh7 cells were seeded onto 6 well plates and grown to 80% confluency in DMEM (Dulbecco's Modified Eagle's Medium)+10% (v/v) FBS (fetal bovine serum)+280 μg/ml GTM (gentamycin). Cells were then incubated for 16 hrs in the same media in the presence or absence of kinase inhibitor; staurosporine (SSP at 200 nm) or GK (genistein at 25 μg/ml). Cells were lysed in 1XRIPA buffer [50 mM Tris (pH 7.6), 150 mM NaCl, 1% (v/v) NP-40, 0.5% (w/v) DOC, 0.1% (w/v) SDS] in the presence of inhibitors, as above. Lysates were rotated at 4° C. for 30 min, centrifuged at 13,000×g for 3 min and supernatants collected. Protein concentrations in total cell lysates were determined by the Bradford dye-binding method using Bio-Rad's Protein Assay Kit (Bio-Rad; Mississauga, ON, CAN). LDLR levels were analyzed by immunoblotting following a standard protocol. The protein signals were quantified by densitometry using Syngene Chemigenius 2XE imager and Gene Tools software. […]

Compound: RSRHLAQAS(phos)QELQ (RSRHLAQA[pS]QELQ) [SEQ ID NO:5, phosphorylated PCSK9 polypeptide fragment comprising phosphoSerine 688]
- effect on LDLR degradation in comparison to control ([1]; peptide 10 μM): protect LDLR from degradation
- effect on LDLR degradation in comparison to control ([1]; peptide 100 μM): protect LDLR from degradation

Compound: S47E: engineered propeptide mutant that mimics PCSK9 propeptide phosphorylation
- level of LDLR / LDLR degradation [2]: increased LDLR degradation

Compound: VLALRSEEDGLAEAP (homo sapiens) [SEQ ID NO:2, unphosphorylated PCSK9 polypeptide fragment comprising Serine 47]
- effect on LDLR degradation in comparison to control ([1]; peptide 10 μM): protect LDLR from degradation
- effect on LDLR degradation in comparison to control ([1]; peptide 100 μM): protect LDLR from degradation

Compound: RSRHLAQASQELQ (homo sapiens) [SEQ ID NO:4, unphosphorylated PCSK9 polypeptide fragment comprising Serine 688]
- effect on LDLR degradation in comparison to control ([1]; peptide 10 μM): protect LDLR from degradation

Compound: VLALRS(phos)EEDGLAEAP (VLALR[pS]EEDGLAEAP) [SEQ ID NO:3, phosphorylated PCSK9 polypeptide fragment comprising phosphoSerine 47]
- effect on LDLR degradation in comparison to control ([1]; peptide 10 μM): accentuate LDLR degradation
- effect on LDLR degradation in comparison to control ([1]; peptide 100 μM): accentuate LDLR degradation

Compound: CN[C@@H]1C[C@H]2O[C@@](C)([C@@H]1OC)n1c3ccccc3c3c4c(c5c6ccccc6n2c5c31)C(=O)NC4 [SSP, staurosporine]
- phosphorylation of PCSK9 and its prodomain [3]: neither PCSK9 nor its prodomain are phosphorylated
- level of LDLR [4]: increased levels of LDLR

Compound: O=c1c(-c2ccc(O)cc2)coc2cc(O)cc(O)c12 [GK, genistein]
- phosphorylation of PCSK9 and its prodomain [3]: does not affect PCSK9 phosphorylation
- level of LDLR [4]: not
